Read-outs that look alike come from different tables or passages of the source.
How the values were obtained:
[1] = target: T1, human pancreatic lipase (hPL) (Homo sapiens, UniProt P16233); assay: Fluorescence-based hPL inhibition assay on microfluidic SlipChip (DDAO-ol hydrolysis); format: biochemical; conditions: for inhibition of hPL-catalyzed DDAO-ol hydrolysis (in words): dose-inhibition curves, Figure 5; for IC50: substrate DDAO-ol 20 μM, hPL 0.25 μg/mL, seven 1:1 gradient concentrations, triplicate, read-out: IC50 against hPL (SlipChip)
T1 sequence (P16233 17-465): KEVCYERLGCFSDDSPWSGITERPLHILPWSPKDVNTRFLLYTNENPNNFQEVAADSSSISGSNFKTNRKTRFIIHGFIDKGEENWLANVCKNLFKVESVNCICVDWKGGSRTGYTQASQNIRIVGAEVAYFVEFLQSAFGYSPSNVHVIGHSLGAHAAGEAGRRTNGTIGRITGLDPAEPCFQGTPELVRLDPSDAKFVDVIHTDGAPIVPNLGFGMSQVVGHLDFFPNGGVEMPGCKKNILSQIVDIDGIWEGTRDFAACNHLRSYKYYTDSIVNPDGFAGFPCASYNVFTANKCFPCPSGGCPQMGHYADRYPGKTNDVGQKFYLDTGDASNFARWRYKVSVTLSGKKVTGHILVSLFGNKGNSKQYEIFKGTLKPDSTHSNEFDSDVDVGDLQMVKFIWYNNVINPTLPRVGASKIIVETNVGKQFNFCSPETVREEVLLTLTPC
Protocol: Fluorescence-based assays were used to determine the residual activities of hPL in the presence of different concentrations of inhibitor, and to calculate the IC50 of the inhibitors. […] Then, the inhibitor at the initial concentration was injected into the P1 fluidic path, followed by injecting DMSO into the P2, P3 and P4 fluidic paths. After sliding the SlipChip as described in Section 2.3 with optimized conditions, seven microchambers containing inhibitors with gradient concentrations were formed. At the same time, the enzyme-substrate system was prepared by mixing 111 μL Tris-HCl (pH 7.4, 25 mM), 80 μL bile salts (0.1 mg/mL, final concentration), 1 μL hPL (dissolved in Tris-HCl buffer, 0.25 μg/mL, final concentration) and 8 μL substrate (DDAO-ol, dissolved in DMSO, 20 μM, final concentration). After pipetting out the residual DMSO in the new path (P5), the prepared enzyme-substrate mixture was immediately injected into the P5 fluidic path. Finally, the top layer was slipped down and to the right, transporting the serial gradient array of inhibitor to the solution of the enzyme-substrate system. […] After 3 min, […] The SlipChip device was then placed under the Olympus IX83 inverted microscope with the same fluorescent condition to obtain the photos of each microchamber. The gray value of the fluorescent photo was analyzed by ImageJ software. The residual activity of hPL was calculated using the following formula: the residual activity (%) = the fluorescence intensity of the test sample/the fluorescence intensity in negative control (DMSO only) × 100%.
All inhibition assays were performed in triplicate (three technical replicates) for each concentration of the inhibitors. IC50 and values were calculated using GraphPad Prism 7.0 (GraphPad Software, Inc., La Jolla, CA, USA).

[2] = target: T1, human pancreatic lipase (hPL); conditions: past studies of the authors, cited from earlier work

IC50 [1] [nM] | Compound | inhibition of hPL-catalyzed DDAO-ol hydrolysis (in words) [1] | IC50 ([2]; read-out: IC50, anti-hPL activity) [nM] | IC50 ([2]; read-out: IC50, inhibitory effect on hPL) [nM]
 | CCCCCCCCCCC[C@@H](C[C@@H]1OC(=O)[C@H]1CCCCCC)OC(=O)[C@H](CC(C)C)NC=O [Orlistat] | strongly inhibited hPL-catalyzed DDAO-ol hydrolysis in a dose-dependent manner |  | 
8.22 | O=C(OC[C@H]1O[C@@H](OC(=O)c2cc(O)c(O)c(O)c2)[C@H](OC(=O)c2cc(O)c(O)c(O)c2)[C@@H](OC(=O)c2cc(O)c(O)c(O)c2)[C@@H]1OC(=O)c1cc(O)c(O)c(O)c1)c1cc(O)c(O)c(O)c1 [PGG, 1,2,3,4,6-penta-O-galloyl-β-D-glucopyranose] | strongly inhibited hPL-catalyzed DDAO-ol hydrolysis in a dose-dependent manner | 7.59 | 
800 | COc1ccc(-c2cc(=O)c3c(O)cc(O)c(-c4cc(-c5cc(=O)c6c(O)cc(OC)cc6o5)ccc4OC)c3o2)cc1 [sciadopitysin] | strongly inhibited hPL-catalyzed DDAO-ol hydrolysis in a dose-dependent manner |  | 750

Reference: PMC9954273, “Construction and Manipulation of Serial Gradient Dilution Array on a Microfluidic Slipchip for Screening and Characterizing Inhibitors against Human Pancreatic Lipase” (Biosensors, 2023)
